# Assay results as given in ChEMBL document CHEMBL1201862, “PubChem BioAssay data set” (2004).
# Activity calls are given as the source filed them.
# Assays:
# [1] = target: T1, Sentrin-specific protease 7 (Homo sapiens, UniProt Q9BQF6); assay: SENP7 protease inhibitors, SAR follow-up, biochemical, luminescence (AID 504497); type: functional
# T1 sequence (Q9BQF6 whole entry): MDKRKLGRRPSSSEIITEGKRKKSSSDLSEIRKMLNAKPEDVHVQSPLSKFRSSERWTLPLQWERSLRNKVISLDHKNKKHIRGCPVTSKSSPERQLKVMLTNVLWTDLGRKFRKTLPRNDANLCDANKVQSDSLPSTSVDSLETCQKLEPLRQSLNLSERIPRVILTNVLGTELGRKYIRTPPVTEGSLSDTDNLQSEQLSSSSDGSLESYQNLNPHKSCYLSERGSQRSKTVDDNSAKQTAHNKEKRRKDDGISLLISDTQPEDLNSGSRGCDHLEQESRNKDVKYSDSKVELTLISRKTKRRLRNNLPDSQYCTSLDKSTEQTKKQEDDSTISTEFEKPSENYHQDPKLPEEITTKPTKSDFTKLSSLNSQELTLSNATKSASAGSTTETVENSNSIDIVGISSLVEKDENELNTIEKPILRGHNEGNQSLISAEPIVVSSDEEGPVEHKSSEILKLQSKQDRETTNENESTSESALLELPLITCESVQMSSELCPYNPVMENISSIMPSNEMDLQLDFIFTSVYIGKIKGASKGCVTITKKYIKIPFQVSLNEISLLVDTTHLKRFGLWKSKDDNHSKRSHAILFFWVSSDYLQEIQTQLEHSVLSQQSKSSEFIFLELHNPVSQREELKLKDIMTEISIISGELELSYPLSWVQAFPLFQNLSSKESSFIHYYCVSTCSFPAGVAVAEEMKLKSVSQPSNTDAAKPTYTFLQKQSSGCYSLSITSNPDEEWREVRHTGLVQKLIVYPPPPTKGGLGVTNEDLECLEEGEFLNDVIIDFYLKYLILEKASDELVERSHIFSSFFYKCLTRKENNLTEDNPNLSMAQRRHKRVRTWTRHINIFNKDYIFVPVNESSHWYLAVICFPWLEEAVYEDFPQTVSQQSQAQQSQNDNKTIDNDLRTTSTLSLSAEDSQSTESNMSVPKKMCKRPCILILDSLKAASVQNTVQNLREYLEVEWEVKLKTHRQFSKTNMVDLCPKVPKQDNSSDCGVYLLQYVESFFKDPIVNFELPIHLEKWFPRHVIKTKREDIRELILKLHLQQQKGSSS
# [2] = target: T2, Sentrin-specific protease 8 (Homo sapiens, UniProt Q96LD8); assay: SENP8 protease inhibitors, SAR follow-up, biochemical, luminescence (AID 504501); type: functional
# T2 sequence (Q96LD8 whole entry): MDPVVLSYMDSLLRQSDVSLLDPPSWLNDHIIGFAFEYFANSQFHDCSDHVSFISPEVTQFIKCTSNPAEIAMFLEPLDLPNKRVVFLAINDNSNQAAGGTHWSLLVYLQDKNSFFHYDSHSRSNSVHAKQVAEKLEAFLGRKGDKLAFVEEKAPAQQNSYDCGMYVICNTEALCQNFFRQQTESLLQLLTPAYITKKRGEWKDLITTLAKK
# [3] = target: T3, Sentrin-specific protease 6 (Homo sapiens, UniProt Q9GZR1); assay: SAR Analysis of small molecule inhibitors of Sentrin-specific protease 6 (SENP6) using a Luminescent assay. [Related pubchem assays (depositor defined):AID2582, AID2599]; type: functional
# T3 sequence (Q9GZR1 whole entry): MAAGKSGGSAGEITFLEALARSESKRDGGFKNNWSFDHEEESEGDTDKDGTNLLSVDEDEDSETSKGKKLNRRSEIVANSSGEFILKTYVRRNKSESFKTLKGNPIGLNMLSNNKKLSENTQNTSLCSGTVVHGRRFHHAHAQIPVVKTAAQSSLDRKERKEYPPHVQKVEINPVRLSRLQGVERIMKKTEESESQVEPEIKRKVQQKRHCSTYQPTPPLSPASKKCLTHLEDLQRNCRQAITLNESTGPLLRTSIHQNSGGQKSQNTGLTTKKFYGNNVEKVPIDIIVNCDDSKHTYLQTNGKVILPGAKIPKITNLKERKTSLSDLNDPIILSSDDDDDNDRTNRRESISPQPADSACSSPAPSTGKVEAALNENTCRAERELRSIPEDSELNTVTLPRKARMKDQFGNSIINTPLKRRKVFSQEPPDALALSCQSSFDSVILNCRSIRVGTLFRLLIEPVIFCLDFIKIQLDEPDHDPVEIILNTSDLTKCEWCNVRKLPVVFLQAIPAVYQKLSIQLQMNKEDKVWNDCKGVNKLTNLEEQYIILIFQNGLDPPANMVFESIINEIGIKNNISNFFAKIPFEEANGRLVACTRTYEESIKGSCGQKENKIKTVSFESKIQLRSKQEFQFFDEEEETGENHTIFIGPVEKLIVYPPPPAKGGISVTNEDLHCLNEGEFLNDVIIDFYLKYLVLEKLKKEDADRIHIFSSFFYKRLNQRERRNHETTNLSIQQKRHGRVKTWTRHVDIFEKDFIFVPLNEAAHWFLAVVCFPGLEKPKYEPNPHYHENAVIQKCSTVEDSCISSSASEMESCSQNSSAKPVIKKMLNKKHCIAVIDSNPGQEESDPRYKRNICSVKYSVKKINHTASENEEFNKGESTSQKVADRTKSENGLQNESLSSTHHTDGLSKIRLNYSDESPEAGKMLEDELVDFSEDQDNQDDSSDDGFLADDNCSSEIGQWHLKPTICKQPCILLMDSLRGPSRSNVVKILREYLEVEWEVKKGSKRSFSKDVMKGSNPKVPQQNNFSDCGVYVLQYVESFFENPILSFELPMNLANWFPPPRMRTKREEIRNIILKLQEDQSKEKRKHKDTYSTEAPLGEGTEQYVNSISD
# Caspase-3 = target: T4, Caspase-3 (Homo sapiens, UniProt P42574); assay: SAR Analysis of small molecule inhibitors of Sentrin-specific proteases (SENPs) using a Caspase-3 Selectivity assay. [Related pubchem assays (depositor defined):AID2540, AID2599, AID434973, AID489001]; type: functional
# T4 sequence (P42574 whole entry): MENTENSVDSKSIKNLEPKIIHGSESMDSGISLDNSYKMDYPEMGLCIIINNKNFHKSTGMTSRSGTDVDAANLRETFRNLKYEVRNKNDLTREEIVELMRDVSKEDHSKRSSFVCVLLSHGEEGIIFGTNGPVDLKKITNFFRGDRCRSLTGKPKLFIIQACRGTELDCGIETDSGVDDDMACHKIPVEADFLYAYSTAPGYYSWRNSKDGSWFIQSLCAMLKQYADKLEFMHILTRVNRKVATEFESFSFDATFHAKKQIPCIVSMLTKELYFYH
# [4] = target: Dual specificity tyrosine-phosphorylation-regulated kinase 1A (Rattus norvegicus, UniProt Q63470); type: biochemical, Homo sapiens
# [5] = target: Dual specificity protein kinase CLK1 (Homo sapiens, UniProt P49759); assay: CLK1 kinase inhibitors, off-target check, dose response, selectivity assay for Dyrk1A inhibitor project, biochemical, cherry-picked samples (AID 588811)
# Dual specificity protein kinase CLK1, sequence (P49759 whole entry): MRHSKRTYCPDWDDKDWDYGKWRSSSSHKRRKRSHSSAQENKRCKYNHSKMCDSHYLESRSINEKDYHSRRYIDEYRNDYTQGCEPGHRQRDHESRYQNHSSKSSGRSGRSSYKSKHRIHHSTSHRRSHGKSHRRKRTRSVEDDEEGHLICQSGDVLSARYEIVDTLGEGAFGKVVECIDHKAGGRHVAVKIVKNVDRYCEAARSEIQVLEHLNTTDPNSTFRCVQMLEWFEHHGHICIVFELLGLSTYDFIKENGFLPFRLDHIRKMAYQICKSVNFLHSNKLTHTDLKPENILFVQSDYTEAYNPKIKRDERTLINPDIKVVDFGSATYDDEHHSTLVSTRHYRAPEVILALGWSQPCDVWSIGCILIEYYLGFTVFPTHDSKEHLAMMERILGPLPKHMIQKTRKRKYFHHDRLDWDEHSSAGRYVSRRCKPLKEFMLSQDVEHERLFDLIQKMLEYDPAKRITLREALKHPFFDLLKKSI
# HEK293 [6] = assay: cells; conditions: Homo sapiens
# [7] = target: Heat shock protein HSP 90-alpha (Homo sapiens, UniProt P07900); type: functional, organism-based
# HEK293 [8] = assay: inhibitors of LMP1-driven NF-kB reporter, dose response, cell-based, HEK293, luciferase, cherry-pick (AID 588343); type: functional; conditions: Homo sapiens
# HEK293 [9] = assay: cells; conditions: Homo sapiens; remark: listed apart in the source
# Nonstructural protein 1 = Nonstructural protein 1 (Influenza A virus, UniProt Q194T2); type: functional, Influenza A virus (A/California/07/2009(H1N1))
# Nonstructural protein 1, sequence (Q194T2 whole entry): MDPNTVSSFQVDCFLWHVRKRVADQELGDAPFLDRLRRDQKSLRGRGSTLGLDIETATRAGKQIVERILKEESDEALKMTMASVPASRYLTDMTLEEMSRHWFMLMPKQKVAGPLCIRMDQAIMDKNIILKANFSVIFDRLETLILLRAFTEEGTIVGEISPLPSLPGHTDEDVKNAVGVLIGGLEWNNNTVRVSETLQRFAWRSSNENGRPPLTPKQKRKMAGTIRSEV
# [10] = target: 26S proteasome non-ATPase regulatory subunit 14 (Homo sapiens, UniProt O00487); assay: inhibition of proteasome subunit RPN11 – biochemical, fluorescence polarization, uHTS hits, confirmation (AID 602368); type: functional
# 26S proteasome non-ATPase regulatory subunit 14, sequence (O00487 whole entry): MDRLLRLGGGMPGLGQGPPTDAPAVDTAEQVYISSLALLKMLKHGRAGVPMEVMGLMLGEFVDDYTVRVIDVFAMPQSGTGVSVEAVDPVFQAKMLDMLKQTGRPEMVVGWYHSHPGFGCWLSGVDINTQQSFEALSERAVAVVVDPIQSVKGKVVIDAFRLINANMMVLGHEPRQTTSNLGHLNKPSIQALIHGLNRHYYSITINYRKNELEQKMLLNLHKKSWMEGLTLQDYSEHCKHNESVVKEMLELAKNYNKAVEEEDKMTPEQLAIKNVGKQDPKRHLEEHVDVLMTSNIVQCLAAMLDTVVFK
# Prothrombin = Prothrombin (Bos taurus, UniProt P00735); assay: thrombin inhibition, dose response, biochemical, fluorescence polarization, uHTS hits (AID 602369); type: functional
# [11] = target: 72 kDa type IV collagenase (Homo sapiens, UniProt P08253); assay: Dose Response validation of uHTS RPN11 inhibitor hits using a MMP-2 Fluorescence assay.; type: functional
# 72 kDa type IV collagenase, sequence (P08253 whole entry): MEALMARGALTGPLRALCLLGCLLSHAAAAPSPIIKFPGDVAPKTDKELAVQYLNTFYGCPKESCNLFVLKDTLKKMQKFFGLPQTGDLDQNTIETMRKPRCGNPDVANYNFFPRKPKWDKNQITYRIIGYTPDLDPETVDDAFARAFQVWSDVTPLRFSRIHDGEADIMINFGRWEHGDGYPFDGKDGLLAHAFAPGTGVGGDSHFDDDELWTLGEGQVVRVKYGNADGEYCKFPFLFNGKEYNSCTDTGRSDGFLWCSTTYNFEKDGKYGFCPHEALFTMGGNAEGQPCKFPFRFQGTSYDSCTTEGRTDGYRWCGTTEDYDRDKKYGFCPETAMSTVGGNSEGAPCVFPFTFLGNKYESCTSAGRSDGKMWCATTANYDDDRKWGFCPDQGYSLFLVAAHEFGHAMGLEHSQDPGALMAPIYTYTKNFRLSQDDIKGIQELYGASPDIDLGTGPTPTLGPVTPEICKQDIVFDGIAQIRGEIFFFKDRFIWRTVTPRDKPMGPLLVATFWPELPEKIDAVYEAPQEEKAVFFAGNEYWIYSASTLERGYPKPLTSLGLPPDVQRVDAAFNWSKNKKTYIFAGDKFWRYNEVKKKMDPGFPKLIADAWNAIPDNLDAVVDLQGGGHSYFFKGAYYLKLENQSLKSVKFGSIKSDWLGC
# Cytochrome P450 2C9 = Cytochrome P450 2C9 (Homo sapiens, UniProt P11712)
# Cytochrome P450 2C9, sequence (P11712 whole entry): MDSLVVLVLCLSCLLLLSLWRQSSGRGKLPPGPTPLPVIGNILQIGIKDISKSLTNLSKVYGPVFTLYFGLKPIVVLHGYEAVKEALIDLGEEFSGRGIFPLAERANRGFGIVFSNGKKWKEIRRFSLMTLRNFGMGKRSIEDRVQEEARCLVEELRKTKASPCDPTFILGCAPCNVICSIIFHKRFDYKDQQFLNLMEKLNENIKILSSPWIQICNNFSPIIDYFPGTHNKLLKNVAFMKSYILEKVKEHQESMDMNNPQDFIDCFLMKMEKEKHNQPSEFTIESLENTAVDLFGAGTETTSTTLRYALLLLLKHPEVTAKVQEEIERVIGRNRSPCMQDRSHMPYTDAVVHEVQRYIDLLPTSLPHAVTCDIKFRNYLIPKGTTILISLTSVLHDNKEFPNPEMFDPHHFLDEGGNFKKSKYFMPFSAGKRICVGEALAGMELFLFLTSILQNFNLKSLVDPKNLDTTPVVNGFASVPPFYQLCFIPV
# Cytochrome P450 3A4 = Cytochrome P450 3A4 (Homo sapiens, UniProt P08684);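 further: CYP3A4 tested as one member of a cytochrome P450 panel screen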
# Cytochrome P450 3A4, sequence (P08684 whole entry): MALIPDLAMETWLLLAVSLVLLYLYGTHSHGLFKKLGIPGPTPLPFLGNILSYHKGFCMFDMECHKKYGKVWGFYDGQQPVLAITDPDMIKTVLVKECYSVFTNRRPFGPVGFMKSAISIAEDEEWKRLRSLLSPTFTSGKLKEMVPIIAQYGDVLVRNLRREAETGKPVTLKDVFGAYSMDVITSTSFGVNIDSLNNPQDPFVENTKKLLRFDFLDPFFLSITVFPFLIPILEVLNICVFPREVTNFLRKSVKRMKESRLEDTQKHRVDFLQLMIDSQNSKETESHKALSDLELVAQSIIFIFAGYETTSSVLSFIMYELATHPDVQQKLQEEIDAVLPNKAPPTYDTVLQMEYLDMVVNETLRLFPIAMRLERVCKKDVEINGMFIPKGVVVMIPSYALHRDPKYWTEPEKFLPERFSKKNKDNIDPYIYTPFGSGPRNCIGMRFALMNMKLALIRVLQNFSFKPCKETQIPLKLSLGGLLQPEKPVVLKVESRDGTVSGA
# Phospholipase A2 = Phospholipase A2 (Homo sapiens, UniProt P04054); type: functional;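 further: confirmatory dose-response counterscreen on phospholipase A2, testing hits that came from an ultra-high-throughput screen for ATG4B inhibitors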
# Phospholipase A2, sequence (P04054 whole entry): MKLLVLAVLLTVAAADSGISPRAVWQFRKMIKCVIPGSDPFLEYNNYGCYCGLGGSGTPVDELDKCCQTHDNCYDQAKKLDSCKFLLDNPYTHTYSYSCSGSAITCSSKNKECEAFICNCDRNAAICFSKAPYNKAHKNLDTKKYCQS
# Cysteine protease ATG4B = target: T5, Cysteine protease ATG4B (Homo sapiens, UniProt Q9Y4P1); type: functional;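 further: Fluorescence-based dose-response confirmation assay measuring inhibition of ATG4B activity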
# T5 sequence (Q9Y4P1 whole entry): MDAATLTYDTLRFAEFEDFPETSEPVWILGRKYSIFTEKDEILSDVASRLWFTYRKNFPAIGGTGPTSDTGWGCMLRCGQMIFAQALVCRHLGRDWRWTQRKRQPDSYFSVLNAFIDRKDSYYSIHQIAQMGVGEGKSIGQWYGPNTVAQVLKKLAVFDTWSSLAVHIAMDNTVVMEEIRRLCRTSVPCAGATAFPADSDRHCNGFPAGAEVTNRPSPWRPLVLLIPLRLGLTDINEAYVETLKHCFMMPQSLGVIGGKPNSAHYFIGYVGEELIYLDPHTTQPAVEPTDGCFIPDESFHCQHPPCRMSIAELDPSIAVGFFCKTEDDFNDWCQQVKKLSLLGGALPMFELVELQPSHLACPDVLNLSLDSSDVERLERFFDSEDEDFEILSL
# Cytochrome P450 2D6 = Cytochrome P450 2D6 (Homo sapiens, UniProt P10635);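 further: CYP2D6 member of a cytochrome P450 panel assay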
# Cytochrome P450 2D6, sequence (P10635 whole entry): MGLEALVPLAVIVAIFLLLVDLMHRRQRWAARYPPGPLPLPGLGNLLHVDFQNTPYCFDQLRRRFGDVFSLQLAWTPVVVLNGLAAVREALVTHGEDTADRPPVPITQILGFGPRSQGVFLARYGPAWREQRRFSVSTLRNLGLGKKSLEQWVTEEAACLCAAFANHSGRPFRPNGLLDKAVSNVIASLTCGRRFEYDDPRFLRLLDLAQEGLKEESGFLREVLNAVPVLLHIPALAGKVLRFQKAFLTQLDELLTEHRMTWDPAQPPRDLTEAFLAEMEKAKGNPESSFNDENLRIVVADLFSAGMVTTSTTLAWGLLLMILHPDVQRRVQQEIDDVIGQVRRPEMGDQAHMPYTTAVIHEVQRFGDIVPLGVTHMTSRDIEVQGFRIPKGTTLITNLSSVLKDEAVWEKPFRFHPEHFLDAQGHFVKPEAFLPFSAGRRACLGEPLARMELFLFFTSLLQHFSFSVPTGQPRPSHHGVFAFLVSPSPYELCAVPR
# [12] = target: T6, Endoribonuclease toxin MazF (Escherichia coli K-12, UniProt P0AE70); assay: MazF toxin RNase activators, dose response, biochemical, fluorescence, single-stranded RNA substrate, uHTS hits (AID 588481); type: functional
# T6 sequence (P0AE70 whole entry): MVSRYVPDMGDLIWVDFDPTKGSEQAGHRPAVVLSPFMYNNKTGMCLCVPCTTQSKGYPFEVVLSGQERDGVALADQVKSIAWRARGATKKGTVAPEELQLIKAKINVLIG
# [13] = target: T7, Corticotropin-releasing factor receptor 2/Corticotropin-releasing factor-binding protein (Homo sapiens, UniProt P24387+Q13324); assay: activators of CRF receptor 2 with binding protein – uHTS hits, confirmation (AID 602473); type: functional; conditions: read-out: EC50_Mean
# T7 sequence (Q13324 whole entry): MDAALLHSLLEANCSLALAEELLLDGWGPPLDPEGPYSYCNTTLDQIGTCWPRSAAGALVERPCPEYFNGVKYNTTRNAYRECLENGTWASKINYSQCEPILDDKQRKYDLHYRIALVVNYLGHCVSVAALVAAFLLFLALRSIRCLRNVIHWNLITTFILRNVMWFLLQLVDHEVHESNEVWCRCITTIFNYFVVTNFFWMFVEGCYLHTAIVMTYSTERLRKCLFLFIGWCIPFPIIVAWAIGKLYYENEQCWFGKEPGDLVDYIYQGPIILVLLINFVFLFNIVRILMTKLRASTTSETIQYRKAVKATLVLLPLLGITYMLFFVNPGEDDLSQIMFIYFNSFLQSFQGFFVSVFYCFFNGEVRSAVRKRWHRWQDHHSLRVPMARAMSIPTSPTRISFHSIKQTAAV
# T7 sequence (P24387 whole entry): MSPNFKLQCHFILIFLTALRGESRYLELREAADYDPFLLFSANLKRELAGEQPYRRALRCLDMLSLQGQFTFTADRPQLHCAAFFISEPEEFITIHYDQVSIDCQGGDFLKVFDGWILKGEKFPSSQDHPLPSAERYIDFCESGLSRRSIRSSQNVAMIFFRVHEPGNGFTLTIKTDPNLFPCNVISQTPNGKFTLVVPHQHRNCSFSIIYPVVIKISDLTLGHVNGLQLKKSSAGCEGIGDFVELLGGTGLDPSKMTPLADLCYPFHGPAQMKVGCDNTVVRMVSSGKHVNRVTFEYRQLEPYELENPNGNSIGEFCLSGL
# [14] = target: T6, Endoribonuclease toxin MazF; assay: fluorescent RNA oligo signal without MazF, dose response, counter-screen for MazEF activator project, biochemical, fluorescence, single-stranded RNase substrate (AID 588502); type: functional
# cells = type: functional
smiles,measurement,setting,value
CC(=O)Nc1ccc2nc(-c3ccccc3)oc2c1,IC50,[1],11.6 µM (active)
same,IC50,[2],49.9 µM (active)
same,IC50,[3],46.5 µM (active)
same,IC50,Caspase-3,14.2 µM (active)
COc1cccc(NC(=O)c2sc(NC(=O)c3ccncc3)nc2C)c1,AC50,[4],32.4 µM (active)
same,AC50,[5],22.2 µM (active)
Clc1ccc(CNc2nccc(-c3ccc4[nH]ncc4c3)n2)cc1Cl,AC50,[5],0.00677 µM (active)
CC(C)(C)CC(=O)Nc1ccc(-c2nc3cc(Cl)ccc3o2)cc1,IC50,[1],> 99 µM (inactive)
same,IC50,[2],> 99 µM (inactive)
same,IC50,[3],> 99 µM (inactive)
same,IC50,Caspase-3,> 99 µM (inactive)
Cc1cc2c(ccc3nonc32)[nH]1,AC50,[4],5.79 µM (active)
CC(=NNC(S)=Nc1ccccc1Cl)c1ccccn1,EC50,HEK293 [6],> 59.6 µM (inactive)
same,AC50,[7],3.46 µM (active)
same,AC50,HEK293 [8],0.0577 µM (active)
same,EC50,HEK293 [9],> 59.6 µM (inactive)
same,IC50,Nonstructural protein 1,21.7 µM (active)
Cc1nc(SCc2nc3cc(Br)ccc3[nH]2)c2oc3ccccc3c2n1,IC50,[10],50 µM (active)
same,IC50,Prothrombin,40 µM (active)
same,IC50,[11],> 100 µM (inactive)
Fc1ccc(NCc2ccccc2F)cc1Cl,AC50,Cytochrome P450 2C9,31.6 µM (inconclusive)
same,AC50,Cytochrome P450 3A4,20 µM (inconclusive)
same,IC50,Phospholipase A2,8.79 µM (active)
same,IC50,Cysteine protease ATG4B,13.3 µM (active)
same,AC50,Cytochrome P450 2D6,17.8 µM (inconclusive)
Clc1ccc(CNc2ncncc2-c2ccc3c(c2)OCO3)cc1,AC50,[5],10 µM (active)
O=[N+]([O-])c1ccc(-c2cn3nc(-c4ccccc4)c(-c4ccccc4)nc3n2)cc1,EC50,[12],> 99 µM (inactive)
same,EC50,[13],> 53 µM (inactive)
same,EC50,[14],> 99 µM (inactive)
N=C1/C(=C/c2ccc(O)cc2)C(=O)N=C2SN=C(SCc3ccccc3)N12,IC50,Phospholipase A2,13.3 µM (active)
same,IC50,Cysteine protease ATG4B,20.4 µM (inactive)
O=C(O)COc1ccc2occ(C(=O)c3ccccc3)c2c1,IC50,cells,12.3 µM (active)
same,AC50,[4],6.49 µM (active)
